From patent US20110028686A1, “Protein binding miniature proteins” (Yale University, priority 2000, published 2011)
Square brackets hold non-standard residues; d marks the D form. Peptide text beside a SMILES is read from it. * marks the point of attachment. Fluorescein(5-NHCOCH2) = O=C(C*)Nc1ccc2c(c1)C(=O)OC21c2ccc(O)cc2Oc2cc(O)ccc21; pS = N[C@@H](COP(=O)(O)O)C(=O)O

Legend:
bZIP region of Fos = biological target: T1, bZIP region of Fos (Homo sapiens, UniProt P01100); assay: Fluorescence polarization specificity, Fos; type: binding
T1 construct: the bZIP region of Fos, which forms dimeric complexes with other bZIP proteins
T1 sequence (P01100 137-200 limits assumed): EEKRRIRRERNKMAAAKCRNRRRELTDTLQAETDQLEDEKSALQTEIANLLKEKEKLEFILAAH
Procedure: (§1) FIG. 3—Fluorescence polarization analysis of the affinity of GST-MDM2 for selected peptides and the affinity of pP53-05 for selected proteins. […] Each point represents the average of at least three trials. Error bars represent the standard error. Kd values were calculated as described in Heyduk, et al., Proc Natl Acad Sci USA 1990, 87, 1744. […] Plot illustrates the fraction of p53AD-Flu (10 nM) bound to GST-MDM2 (400 nM) at equilibrium as a function of added pP53-05 (4.5 μM-0.18 μM). Ki was calculated using the Cheng-Prusoff equation.
(§2) The specificity of pP53-05 was evaluated by measuring its affinity for several receptors and enzymes that bind helical or hydrophobic peptides or small molecules (FIG. 3).

GST-MDM2 [1] = biological target: T2, GST-MDM2 (Homo sapiens, UniProt Q00987); assay: Competition fluorescence polarization, p53AD-Flu bound to GST-MDM2; type: binding; details: p53AD-Flu 10 nM, GST-MDM2 400 nM; Cheng-Prusoff
T2 sequence (Q00987 whole entry): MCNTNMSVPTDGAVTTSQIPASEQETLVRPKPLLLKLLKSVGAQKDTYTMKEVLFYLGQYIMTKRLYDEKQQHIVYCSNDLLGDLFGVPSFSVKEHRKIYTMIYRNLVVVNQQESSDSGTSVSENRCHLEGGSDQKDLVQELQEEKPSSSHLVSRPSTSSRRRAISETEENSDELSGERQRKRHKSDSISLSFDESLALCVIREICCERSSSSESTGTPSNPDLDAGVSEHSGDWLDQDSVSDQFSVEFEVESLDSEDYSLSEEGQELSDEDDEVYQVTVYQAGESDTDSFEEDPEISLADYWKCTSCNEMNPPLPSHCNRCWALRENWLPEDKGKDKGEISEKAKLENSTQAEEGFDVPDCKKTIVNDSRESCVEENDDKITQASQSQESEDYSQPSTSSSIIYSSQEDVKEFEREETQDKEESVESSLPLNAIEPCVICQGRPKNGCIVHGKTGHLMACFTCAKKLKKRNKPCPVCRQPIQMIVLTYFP

carbonic anhydrase = assay: Fluorescence polarization specificity, carbonic anhydrase; type: binding
Procedure: as §1, §2

protein kinase A = protein kinase A (Homo sapiens, UniProt P17612); assay: Fluorescence polarization specificity, protein kinase A; type: binding
Procedure: as §1, §2

[2] = Circular dichroism thermal denaturation; type: physicochemical; details: far UV circular dichroism at 222 nm
Procedure: Spectra were acquired in 0.5×PBS at 25° C. using a Aviv Model 62DS spectrometer. […] Each data set represents the average of 10 scans. Spectra were background corrected but were not smoothed. (b) Temperature dependence of the CD spectrum of pP53-05. ΘMRE is in units of deg·cm^2·dmol^−1.
Circular dichroism spectra were recorded in PBS on an Aviv 202 CD Spectrometer and were background corrected but not smoothed. Wavelength scans were performed at 4° C. between 200 and 260 nm at 1 nm intervals with a recording time of five seconds at each interval. Bak (72-94), 4099, 4100, 4101, 4102 were used at concentrations of 0.028 mM, 0.0069 mM, 0.0119 mM, 0.014 mM and 0.016 mM respectively. Thermal denaturation curves were measured at 222 nm between 4-98° C. with 2° C. steps and one minute equilibration at each temperature. Peptides were used at the highest concentrations used for the wavelength scans described above. Mean residue elliptcity and percent helicity were calculated from the value at 222 nm after background correction.

Calmodulin = biological target: T3, Calmodulin (Homo sapiens, UniProt P0DP23); assay: Fluorescence polarization specificity, calmodulin; type: binding
T3 construct: purchased Sigma
Procedure: as §1, §2

GST-MDM2 [3] = assay: Fluorescence polarization, affinity for GST-MDM2; type: binding, human; details: calmodulin, Fos, carbonic anhydrase, protein kinase A vs GST-MDM2
GST-MDM2 [4] = biological target: T2, GST-MDM2; assay: Fluorescence polarization, affinity for GST-MDM2; type: binding; details: fluorescein-labeled peptide; read-out: equilibrium dissociation constant (Kd) of the peptide·GST-MDM2 complex
CBP KIX K606A = biological target: T4, CBP KIX K606A (Mus musculus, UniProt P45481, K606A); assay: Equilibrium fluorescence polarization, CBP KIX variant K606A; type: binding
T4 construct: made in house; host or cells: E. coli BL21(DE3) pArg
T4 sequence (P45481 586-665 K606A limits assumed): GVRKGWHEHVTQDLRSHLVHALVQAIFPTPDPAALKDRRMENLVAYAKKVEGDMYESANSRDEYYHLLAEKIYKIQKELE

CBP KIX L599A = biological target: T5, CBP KIX L599A (Mus musculus, UniProt P45481, L599A); assay: Equilibrium fluorescence polarization, CBP KIX variant L599A; type: binding
T5 construct: made in house; host or cells: E. coli BL21(DE3) pArg
T5 sequence (P45481 586-665 L599A limits assumed): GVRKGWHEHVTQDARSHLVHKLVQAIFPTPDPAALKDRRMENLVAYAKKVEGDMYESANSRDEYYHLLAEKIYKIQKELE

[5] = biological target: T6, HisKIX (His-tagged CBP KIX domain) (Mus musculus, UniProt P45481); assay: Equilibrium fluorescence polarization, HisKIX binding
T6 construct: The CBP KIX-coding region (residues 586 to 672) of pGEX-KT KIX 10-672; made in house; host or cells: E. coli BL21(DE3) pArg
T6 sequence (P45481 586-672): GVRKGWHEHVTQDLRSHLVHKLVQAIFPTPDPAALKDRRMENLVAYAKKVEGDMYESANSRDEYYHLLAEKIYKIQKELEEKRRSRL

CBP KIX K662A = biological target: T7, CBP KIX K662A (Mus musculus, UniProt P45481, K662A); assay: Equilibrium fluorescence polarization, CBP KIX variant K662A; type: binding
T7 construct: made in house; host or cells: E. coli BL21(DE3) pArg
T7 sequence (P45481 586-665 K662A limits assumed): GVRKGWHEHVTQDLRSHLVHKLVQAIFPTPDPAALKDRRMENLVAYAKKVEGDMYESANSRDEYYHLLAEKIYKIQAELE

CBP KIX Y658F = biological target: T8, CBP KIX Y658F (Mus musculus, UniProt P45481, Y658F); assay: Equilibrium fluorescence polarization, CBP KIX variant Y658F; type: binding
T8 construct: made in house; host or cells: E. coli BL21(DE3) pArg
T8 sequence (P45481 586-665 Y658F limits assumed): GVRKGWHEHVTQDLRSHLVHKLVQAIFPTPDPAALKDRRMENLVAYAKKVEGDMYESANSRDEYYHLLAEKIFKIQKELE

CBP KIX L603A = biological target: T9, CBP KIX L603A (Mus musculus, UniProt P45481, L603A); assay: Equilibrium fluorescence polarization, CBP KIX variant L603A; type: binding
T9 construct: made in house; host or cells: E. coli BL21(DE3) pArg
T9 sequence (P45481 586-665 L603A limits assumed): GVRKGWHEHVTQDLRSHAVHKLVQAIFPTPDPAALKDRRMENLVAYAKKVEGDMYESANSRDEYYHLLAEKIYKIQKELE

CBP KIX LL652-3AA = biological target: T10, CBP KIX LL652-3AA (Mus musculus, UniProt P45481, L652A/L653A); assay: Equilibrium fluorescence polarization, CBP KIX variant LL652-3AA; type: binding
T10 construct: made in house; host or cells: E. coli BL21(DE3) pArg
T10 sequence (P45481 586-665 L652A/L653A): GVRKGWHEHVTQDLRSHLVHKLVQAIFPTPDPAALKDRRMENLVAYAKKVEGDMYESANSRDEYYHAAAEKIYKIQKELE

CBP KIX Y650A = biological target: T11, CBP KIX Y650A (Mus musculus, UniProt P45481, Y650A); assay: Equilibrium fluorescence polarization, CBP KIX variant Y650A; type: binding
T11 construct: made in house; host or cells: E. coli BL21(DE3) pArg
T11 sequence (P45481 586-665 Y650A limits assumed): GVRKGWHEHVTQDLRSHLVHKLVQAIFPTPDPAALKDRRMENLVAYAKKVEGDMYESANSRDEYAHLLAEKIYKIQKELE

CBP KIX I657A = biological target: T12, CBP KIX I657A (Mus musculus, UniProt P45481, I657A); assay: Equilibrium fluorescence polarization, CBP KIX variant I657A; type: binding
T12 construct: made in house; host or cells: E. coli BL21(DE3) pArg
T12 sequence (P45481 586-665 I657A limits assumed): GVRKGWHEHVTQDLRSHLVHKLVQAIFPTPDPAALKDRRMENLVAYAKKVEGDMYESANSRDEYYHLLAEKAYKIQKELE

| ΔΔG vs wild type CBP KIX, K606A (CBP KIX K606A) [kcal/mol] | ΔΔG vs wild type CBP KIX, L599A (CBP KIX L599A) [kcal/mol] | ΔΔG of HisKIX binding upon phosphorylation [5] [kcal/mol] | ΔΔG vs wild type CBP KIX, K662A (CBP KIX K662A) [kcal/mol] | ΔΔG vs wild type CBP KIX, Y658F (CBP KIX Y658F) [kcal/mol] | ΔΔG vs wild type CBP KIX, L603A (CBP KIX L603A) [kcal/mol] | ΔΔG vs wild type CBP KIX, LL652-3AA (CBP KIX LL652-3AA) [kcal/mol] | ΔΔG vs wild type CBP KIX, Y650A (CBP KIX Y650A) [kcal/mol] | ΔΔG vs wild type CBP KIX, I657A (CBP KIX I657A) [kcal/mol] | Structure (SMILES) | Kd (bZIP region of Fos) [µM] | Ki (GST-MDM2 [1]) [µM] | Kd (carbonic anhydrase) [µM] | Kd (protein kinase A) [µM] | Tm, cooperative thermal melt [2] [°C] | Kd (Calmodulin) [µM] | ΔΔG between stabilities of non-target protein complexes and pP53-05·GST-MDM2 (GST-MDM2 [3]) | Kd (GST-MDM2 [4]) [µM] |
| --- | --- | --- | --- | --- | --- | --- | --- | --- | --- | --- | --- | --- | --- | --- | --- | --- | --- |
| – | – | – | – | – | – | – | – | – | CC[C@H](C)[C@H](NC(=O)[C@H](CC(C)C)NC(=O)[C@H](CC(=O)O)NC(=O)[C@H](CCC(=O)O)NC(=O)[C@@H](NC(=O)[C@@H]1CCCN1C(=O)[C@H](C)NC(=O)[C@H](CC(=O)O)NC(=O)[C@H](CC(=O)O)NC(=O)CNC(=O)[C@@H]1CCCN1C(=O)[C@H](Cc1ccc(O)cc1)NC(=O)[C@@H](NC(=O)[C@@H]1CCCN1C(=O)[C@H](CCC(N)=O)NC(=O)[C@H](CO)NC(=O)[C@@H]1CCCN1C(=O)CN)[C@@H](C)O)C(C)C)C(=O)N[C@@H](CCCNC(=N)N)C(=O)N[C@@H](Cc1ccccc1)C(=O)N[C@@H](CCCCN)C(=O)N[C@@H](Cc1ccccc1)C(=O)N[C@@H](CC(C)C)C(=O)N[C@@H](CC(C)C)C(=O)N[C@@H](CCC(N)=O)C(=O)N[C@@H](Cc1c[nH]c2ccccc12)C(=O)N[C@@H](Cc1ccc(O)cc1)C(=O)N[C@@H](CC(C)C)C(=O)N[C@@H](CC(C)C)C(=O)N[C@@H](C)C(=O)N[C@@H](CC(C)C)C(N)=O [pP53-05] (H-GPSQPTYPGDDAPVEDLIRFKFLLQWYLLAL-NH2; N-terminus and C-terminus assumed) | 42 | 0.722 | 298 | 16 | 47 | > 275 | 2.8-4.4 kcal·mol^−1 | 0.099 ± 0.011 |
| 1.0 | 0.58 | > 3.2 | 1.5 | 2.5 | 1.2 | 1.2 | 1.8 | 0.9 | CC[C@H](C)[C@H](NC(=O)[C@H](CCCCN)NC(=O)[C@H](CCCNC(=N)N)NC(=O)[C@H](Cc1ccc(O)cc1)NC(=O)[C@H](COP(=O)(O)O)NC(=O)[C@@H]1CCCN1C(=O)[C@H](CCCNC(=N)N)NC(=O)[C@H](CCCNC(=N)N)NC(=O)[C@H](CO)NC(=O)[C@H](CC(C)C)NC(=O)[C@@H](NC(=O)[C@H](CCC(=O)O)NC(=O)[C@H](CCCNC(=N)N)NC(=O)[C@H](CCCNC(=N)N)NC(=O)[C@H](CCCCN)NC(=O)[C@H](CCC(N)=O)NC(=O)[C@H](CO)NC(=O)[C@H](CC(=O)O)NC(=O)[C@@H](N)[C@@H](C)O)[C@@H](C)CC)C(=O)N[C@@H](CC(C)C)C(=O)N[C@@H](CC(N)=O)C(=O)N[C@@H](CC(=O)O)C(=O)N[C@@H](CC(C)C)C(=O)N[C@@H](CO)C(=O)N[C@@H](CO)C(=O)N[C@@H](CC(=O)O)C(=O)N[C@@H](C)C(=O)N1CCC[C@H]1C(=O)NCC(=O)N[C@H](C(=O)N[C@@H](CSCC(=O)Nc1ccc2c(c1)C(=O)OC21c2ccc(O)cc2Oc2cc(O)ccc21)C(N)=O)C(C)C [KID-AB, reference compound] (H-TDSQKRREILSRRP[pS]YRKILNDLSSDAPGVC(Fluorescein(5-NHCOCH2))-NH2) | – | – | – | – | – | – | – | – |
